{"source": "patent US20160184274A1", "about": "“Methods for inhibiting mesenchymal phenotype after epithelial-to-mesenchymal transition” (Fibrostatin, S.L., priority 2014, published 2016)", "key": {"[1]": {"system": "stem A549 cells", "details": "WO/2014/006020; cited from earlier work"}, "[2]": {"system": "A7C11", "experiment": "Collagen IV expression in A7C11", "assay_type": "cell-based, murine", "details": "data not shown"}, "[3]": {"system": "mesenchymal A549 spheroids", "experiment": "Spheroid viability / cell death by LDH activity in media", "assay_type": "cell-based, Human", "details": "T12 10 μM for the last 2 days of 4-day EMT induction; FIG. 7B", "method": "FIG. 7. T12 disrupts collagen IV network and reduces A549 mesenchymal spheroids viability. A549 spheroids were subjected to EMT induction with TGF-β and TNF-α during 4 days, and treated with T12 (10 μM) or maintained untreated (Cont) for the last 2 days. In A, spheroids were analyzed by immunofluorescence confocal microscopy with anti-α1α2 (IV) antibodies (COL4, white) and DAPI to visualize the cell nuclei (grey). In B, the culture media of the spheroids in A were used for assessing cell death by measuring LDH activity. […] Represented are Means (±SEM).\nFor some purposes, culture media were cleared by centrifugation (500×g, 10 min, room temperature) and LDH activity in supernatants determined with Lactate Dehydrogenase Activity Assay Kit (Sigma-Aldrich).\nThree-dimensional spheroid cultures of A549 cells were obtained using a hanging droplet method (Kelm et al., 2003. Biotechnol. Bioeng. 83: 173-180.; Kumar et al., 2013. PLoS One. 8: e68597). Briefly, cells were grown to approximately 80% confluence on adherent tissue-culture flasks. Then cells were trypsinized, dispersed in DMEM/10% FBS, and counted using an automated cell counter (MOXI® Z, Orflo). The cell suspension was diluted to a 10^6 cells/mL-concentration, and 25 μl of the cell suspension were pipetted onto the underside of a sterile 10-cm tissue culture plate lid. Each lid was loaded with approximately 55 droplets. […]"}, "[4]": {"system": "A549 tumors displaying mesenchymal phenotype", "experiment": "A549 xenograft, tumors with mesenchymal phenotype", "assay_type": "in vivo", "details": "T12 20 mg/kg/day in drinking water; athymic mice; FIG. 10A", "source_text": "FIG. 10. […] Control, n=43; T12, n=18."}, "[5]": {"system": "mesenchymal A549 spheroids", "experiment": "Intracellular doxorubicin accumulation and viability in spheroids", "assay_type": "cell-based, Human", "details": "FIG. 9", "method": "FIG. 9. T12 enhances intracellular accumulation of doxorubicin in A549 mesenchymal spheroids. A549 spheroids were subjected to EMT induction with TGF-β and TNF-α during 4 days, and treated with T12 (10 μM) or maintained untreated (Placebo) for the last 2 days. Three hours before spheroid analysis doxorubicin (1 μM) was added. Spheroids were fixed and analyzed by immunofluorescence confocal microscopy with anti-α1α2(IV) antibodies for collagen IV network visualization (grey). Doxorubicin was detected by its own auto-fluorescence. […] Three-dimensional spheroid cultures of A549 cells were obtained using a hanging droplet method (Kelm et al., 2003. Biotechnol. Bioeng. 83: 173-180.; Kumar et al., 2013. PLoS One. 8: e68597). Briefly, cells were grown to approximately 80% confluence on adherent tissue-culture flasks. Then cells were trypsinized, dispersed in DMEM/10% FBS, and counted using an automated cell counter (MOXI® Z, Orflo). The cell suspension was diluted to a 10^6 cells/mL-concentration, and 25 μl of the cell suspension were pipetted onto the underside of a sterile 10-cm tissue culture plate lid. Each lid was loaded with approximately 55 droplets. After loading, the lid was placed onto a tissue culture plate containing 6 mL of sterile PBS (phosphate-buffered saline) and incubated for 48 hours to facilitate spheroid formation. […]"}}, "note": "Entries after “also recorded” stand apart in the source; their conditions may differ.", "data": [{"smiles": "COc1ccc(-c2ccc(-c3cccc(C)c3)c(C)c2)c(CCC(=O)O)c1", "note": "[T12, 3-[4″-methoxy-3,2′-dimethyl-(1,1′;4′,1″)terphenyl-2″-yl] propionic acid]", "values": [{"measurement": "doxorubicin accumulation and viability", "setting": "[1]", "value": "accumulated doxorubicin reducing viability"}, {"measurement": "collagen IV expression", "setting": "[2]", "value": "significantly reduced collagen IV expression"}, {"measurement": "cell viability (LDH activity in culture media)", "setting": "[3]", "value": "reduced cell viability"}, {"measurement": "tumor growth (relative tumor volume)", "setting": "[4]", "value": "very effective slowing the growth"}, {"measurement": "intracellular accumulation of doxorubicin (nuclei containing doxorubicin)", "setting": "[5]; T12 10 μM last 2 days, doxorubicin 1 μM 3 h before analysis", "value": "accumulating doxorubicin inside the cells; also recorded: more abundant in spheroids treated with doxorubicin and T12 than in spheroids treated only with doxorubicin"}, {"measurement": "viability of spheroids with doxorubicin", "setting": "[5]; T12 10 μM plus doxorubicin 1 μM", "value": "sharply reduced the viability"}]}]}
